Test results taken from patent US4218477A, “Primary aminoacylanilides, methods of making the same and use as antiarrhythmic drugs” (priority 1976, dated 1980).
Where two headings read alike, the source gives them in different places. Each block holds one compound with its values, some of them ahead of it.

Columns and labels:
[1] = tested on: chloroform induced fibrillation; assay: Protection against chloroform induced fibrillation in mice, subcutaneous, potency relative to lidocaine (Table IV); format: in vivo; conditions: s.c., 20 min, statistical mean (confidence limits)
Procedure: (§1) The experiments on mice were performed according to a modification of the method described by J. W. Lawson, "Antiarrhythmic activity of some isoquinoline derivatives determined by a rapid screening procedure in the mouse", J. Pharm. Exp. Therap. Vol. 160, pp. 22-31 (1968). This method is based upon the observation that when an unanesthetized, untreated mouse is exposed to chloroform vapor its respiration soon ceases and at that time both electrocardiographic and visual inspection reveal that the cardiac ventricles are fibrillating. If the mouse is treated appropriately with known antiarrhythmic agents prior to exposure to chloroform, the respiratory failure is not accompanied by ventricular fibrillation.
The procedure used was a modification of the method previously described. The modification involved using a standard time of 20 minutes for each test run and four different doses of the same drug. Route of administration was subcutaneous.

[2] = tested on: mice; conditions: mouse, in vivo, po, 1440 min
[3] = Acute oral toxicity in mice (24 Hr. mortality); conditions: mouse, in vivo, po
[4] = tested on: cardiac arrhythmias; conditions: in vivo; cited from earlier work
[5] = tested on: mice; assay: Ataxia just before CHCl3 challenge in mice, oral (Table I); format: in vivo, female Swiss albino mice (HAM/ICR)
Procedure: as §1

[6] = tested on: ventricular fibrillation; assay: Protection against chloroform induced ventricular fibrillation in mice, oral (Table I); format: in vivo, female Swiss albino mice (HAM/ICR)
Procedure: as §1

[7] = tested on: chloroform-induced arrhythmias; assay: animal or person; conditions: Mus musculus
[8] = tested on: chloroform-induced arrhythmias; conditions: mouse, in vivo
[9] = tested on: ventricular arrhythmias; assay: animal or person
Procedure: Tests on dogs with the compound 2-amino-2',6'-propionoxylidide were conducted according to a modification of the method described by A. S. Harris in "Delayed Development of Ventricular Ectopic Rhythms Following Experimental Coronary Occlusions", Circ. Vol. 1, pp. 1318-1328 (1950). In this method the dogs were anesthetized, the heart was exposed, and the anterior descending branch of the left coronary artery was ligated in two stages. The thorax was closed and the dog was allowed to recover from the anesthesia. […] B. B. Clark and J. R. Cummings, "Arrhythmias Following Experimental Coronary Occlusion and Their Response to Drugs", Annals New York Academy of Sciences, Vol. 65, pp. 543-551 (1956). […] The electrocardiographic, cardiovascular and other drug effects were monitored.
The dosage schedule was: 1st hr.: 15 mg/kg/hr; 2nd hr.: 30 mg/kg/hr; 3rd hr.: 60 mg/kg/hr. Infusions were stopped at the first sign of toxicity other than emesis.
The compound 3-amino-2',6'-butyroxylidide was also tested on dogs, according to a modification of the method of Harris as previously described. As in the previously described tests, unanesthetized dogs were supported in canvas slings and were treated either intravenously or orally with doses of 3-amino-2',6'-butyroxylidide. The electrocardiographic, cardiovascular and other drug effects were monitored.

[10] = tested on: ventricular arrhythmias; format: in vivo, dogs
Procedure: Vol. 1, pp. 1318-1328 (1950). […] The electrocardiographic, cardiovascular and other drug effects were monitored.
Table II summarizes the results of oral administration:
Dogs #215 and #220 given 50 mg/kg dose at 0 mins and 100 mg/kg dose at 24
The electrocardiographic, cardiovascular and other drug effects were monitored.

[11] = tested on: ventricular fibrillation; assay: Protection against chloroform induced fibrillation in the guinea pig, intraperitoneal (Table V); format: in vivo; conditions: 326 mg/kg i.p., 20 min before chloroform
Procedure: Guinea pigs (250-350 g) were placed individually into a series of 4000 ml beakers containing cotton and 100 ml of chloroform. After cessation of respiration the animal was removed from the beaker, the thorax was opened and the heart was examined for the presence or absence of ventricular fibrillation. The nature of the cardiac rhythm was confirmed by electrocardiographic recordings.
A single dose (about 1-5 ml) of each test compound was administered intraperitoneally by a 25 gauge needle twenty minutes before the animals were placed in chloroform.

[12] = tested on: mice; assay: Acute oral toxicity in mice (24 Hr. mortality); conditions: oral, mice, 24 hr; dose to kill one of a thousand
[13] = tested on: frog sciatic nerve; assay: Local anesthetic effect in vitro on the frog sciatic nerve; conditions: 5 min; 20 mM, after 5 minutes; read-out: block of the action potential of the nerve
[14] = cited from earlier work
[15] = pKa; format: physicochemical; conditions: 23; read-out: pkaa^23
[16] = dose LD0.1, drug given 10 min before CHCl3 challenge
[17] = dose LD0.1, drug given 20 min before CHCl3 challenge
[18] = dose LD0.1, drug given 40 min before CHCl3 challenge
[19] = dose LD0.1, drug given 80 min before CHCl3 challenge

Structure (SMILES): Cc1cccc(C)c1NC(=O)CCN [3-amino-2', 6'-propionoxylidide, 3-amino-2',6'-propionoxylidide]
Relative Potency (ED50 test compound/ED50 lidocaine) [1]: 0.4 (0.2 - 0.8)

Structure (SMILES): CCc1cccc(C)c1NC(=O)CCN [3-amino-2'-ethyl-6'-methylpropionanilide]
Relative Potency (ED50 test compound/ED50 lidocaine) [1]: 0.29 (0.09 - 0.81)

Structure (SMILES): Cc1cccc(C)c1NC(=O)[C@H](C)N [(+)-2-amino-2',6'-propionoxylidide]
Relative Potency (ED50 test compound/ED50 lidocaine) [1]: 0.11 (0.06 - 0.21)

Structure (SMILES): CCN(CC)CCNC(=O)c1ccc(N)cc1 [Procainamide]
24 Hr. Mortality LD0.1 [2]: 248 mg/kg | LD50 at 24 h [3]: 643 mg/kg | side effects [4]: exhibit undesirable side effects | Proportion of mice having ataxia just before CHCl3 challenge ([5]; dose LD0.1, 5 min): 0/10 | Proportion of mice having ataxia just before CHCl3 challenge ([5]; dose LD0.1, 10 min): 0/10 | Proportion of mice having ataxia just before CHCl3 challenge ([5]; dose LD0.1, 20 min): 0/10 | Proportion of mice protected against fibrillation at LD0.1 ([6]; dose LD0.1, drug given 5 min before CHCl3 challenge): 0/10 | Proportion of mice protected against fibrillation at LD0.1 [6, 16]: 1/10 | Proportion of mice protected against fibrillation at LD0.1 [6, 17]: 0/10

Structure (SMILES): CCc1cccc(CC)c1NC(=O)CN [2-amino-2', 6'-diethylacetanilide, 2-amino-2',6'-diethylacetanilide]
Relative Potency (ED50 test compound/ED50 lidocaine) [1]: 0.22 (0.13 - 0.36)

Structure (SMILES): CCNC(C)C(=O)Nc1c(C)cc(C)cc1C (centres unmarked)
ED50 [7]: 162 mg/kg | incidence of ataxia [8]: 100% | incidence of convulsions [8]: 90%

Structure (SMILES): CCc1cccc(C)c1NC(=O)CN [2-amino-2'-ethyl-6'-methyl acetanilide, 2-amino-2'-ethyl-6'-methylacetanilide]
Relative Potency (ED50 test compound/ED50 lidocaine) [1]: 0.27 (0.14 - 0.40)

Structure (SMILES): Cc1cccc(C)c1NC(=O)[C@@H](C)N [2-amino-2',6'-propionoxylidide]
Relative Potency (ED50 test compound/ED50 lidocaine) [1]: 0.45 (0.26 - 0.78)

Structure (SMILES): Cc1cccc(C)c1NC(=O)CC(C)N (centres unmarked) [3-amino-2',6'-butyroxylidide]
adverse reactions ([9]; dog, in vivo, iv): unaccompanied by any discernible adverse reactions | suppression of the ventricular arrhythmias ([9]; intravenous doses, dogs): distinct suppression of the ventricular arrhythmias | toxic side-effects ([9]; intravenous, antiarrhythmic doses, dogs (Table VI)): minimal toxic side-effects | Toxicity: Convulsions ([9]; intravenous, individual dogs): None | Toxicity: Deaths ([9]; intravenous, individual dogs): None | adverse reactions ([10]; dog, in vivo, po): unaccompanied by any discernible adverse reactions | suppression of the ventricular arrhythmias ([10]; oral doses, dogs): distinct suppression of the ventricular arrhythmias | Percent of Population Protected [11]: 100% | Relative Potency (ED50 test compound/ED50 lidocaine) [1]: 0.99 (0.60 - 1.9)

Structure (SMILES): CCc1cccc(CC)c1NC(=O)C(C)N (centres unmarked) [2-amino-2', 6'-diethylpropionanilide, 2-amino-2',6'-diethylpropionanilide]
Relative Potency (ED50 test compound/ED50 lidocaine) [1]: 0.48 (0.27 -0.73)

Structure (SMILES): O=C1NC(=O)C(c2ccccc2)(c2ccccc2)N1 [diphenylhydantoin]
side effects [4]: exhibit undesirable side effects

Structure (SMILES): C=C[C@H]1C[N@@]2CC[C@H]1C[C@@H]2[C@@H](O)c1ccnc2ccc(OC)cc12 [Quinidine]
24 Hr. Mortality LD0.1 [12]: 348 mg/kg | LD50 at 24 h [3]: 382 mg/kg | side effects [4]: exhibit undesirable side effects | Proportion of mice having ataxia just before CHCl3 challenge ([5]; dose LD0.1, 20 min): 0/10 | Proportion of mice having ataxia just before CHCl3 challenge ([5]; dose LD0.1, 40 min): 2/10 | death ([5]; dose LD0.1, 40 min group): 1 death | death ([5]; dose LD0.1, 80 min group): 1 death | Proportion of mice protected against fibrillation at LD0.1 [6, 17]: 10/10 | Proportion of mice protected against fibrillation at LD0.1 [6, 18]: 9/9 | Proportion of mice protected against fibrillation at LD0.1 [6, 19]: 9/9

Structure (SMILES): CCN(CC)CC(=O)Nc1c(C)cccc1C [Lidocaine, 2-diethylamino-2',6'-acetoxylidide]
Number of dogs showing antiarrhythmic effect ([9]; i.v. infusion 15, 30, 60 mg/kg/hr, dogs tested: lidocaine 2, test compound 1, abnormal beats less than 5% of total): 2 | 24 Hr. Mortality LD0.1 [12]: 154 mg/kg | Proportion of mice having ataxia just before CHCl3 challenge ([5]; dose LD0.1, 10 min): 0/10 | Proportion of mice having ataxia just before CHCl3 challenge ([5]; dose LD0.1, 20 min): 9/10 | Proportion of mice having ataxia just before CHCl3 challenge ([5]; dose LD0.1, 40 min): 0/10 | Proportion of mice having ataxia just before CHCl3 challenge ([5]; dose LD0.1, 80 min): 0/10 | Proportion of mice protected against fibrillation at LD0.1 [6, 16]: 9/10 | Proportion of mice protected against fibrillation at LD0.1 [6, 17]: 10/10 | Proportion of mice protected against fibrillation at LD0.1 [6, 18]: 7/10 | Proportion of mice protected against fibrillation at LD0.1 [6, 19]: 0/10 | inhibition at 20000 µM [13]: 78% | duration of blood levels ([14]; in vivo): fairly short | levels of the drug in the blood ([14]; oral): low levels of the drug in the blood | oral effectiveness ([14]; oral): not orally effective | loss of the drug after oral administration ([14]; oral, probably due to functions of the liver): pronounced loss of the drug

pKa [15]: 8.7 to 8.8
Structure (SMILES): Cc1cc(C)c(NC(=O)CCN)c(C)c1 [3-amino-2', 4', 6'-propionomesidide, 3-amino-2',4',6'-propionomesidide]

Structure (SMILES): CC(C)NCC(O)COc1cccc2ccccc12 (centres unmarked) [propranolol]
side effects [4]: exhibit undesirable side effects
